Read-outs that look alike come from different tables or passages of the source.

The source of these data is patent publication US8956445B2, “High stability diionic liquid salts” (Sigma-Aldrich Co., priority 2004, dated 2015).

Series [1] can be described thus: Density (2.0 mL volumetric tube, weighing by difference). In kind it is physicochemical. Particulars: 23° C. As to the method:
(§1) The densities of the ionic liquids or, more correctly, […] (used synonymously except as indicated otherwise explicitly or by context) was determined at 23° C. by placing 2.0 mL of the ionic liquid in a 2.0 mL volumetric tube and weighing by difference. The melting points of the ionic liquids were determined using a Perkin Elmer Pyris 1 Differential Scanning calorimeter (Boston, Mass.). Typical methods involved using a 10° C./min temperature ramp to determine and identify the first and second order thermal transitions. […] For solid compounds, the melting points were verified using a capillary melting point apparatus. Refractive index measurements were conducted at 23° C. using a Bausch & Lomb Abbe-3L refractometer.

Series [2] is described as follows: Refractive index (Abbe-3L refractometer). In kind it is physicochemical. As to conditions: 23° C. As to the method:
as §1

The conditions of series [3]: values taken from reference 31, cited from earlier work.
Series [4] is described as follows: Solvation interaction parameters by inverse gas-liquid chromatography (Abraham solvation model). In kind it is physicochemical. The method, then: The preparation of the capillary columns for inverse gas-liquid chromatographic analysis was performed using a previously described procedure.^31 All capillary columns had efficiencies between 2100 to 2500 plates/meter. Characterization of the capillary columns and probe molecule descriptions are listed in supplemental information. Multiple linear regression analysis (MLRA) and statistical calculations were performed using the program Analyse-it (Microsoft, USA).
We have previously reported that the Abraham solvation model, a linear free energy approach that utilizes inverse gas-liquid chromatography to describe the solvation properties of a liquid, can be used to characterize room temperature ionic liquids.^31 Described by equation 1, the model provides the so-called “interaction parameters” (r, s, a, b, l) by using multiple linear regression analysis to fit the retention factor (k, determined chromatographically) to the solute descriptors (R2, π2^H, α2^H, β2^H, log L^16) for a wide variety of probe solute molecules. […] The solvation properties of four dicationic ionic liquids (see Table 4) were evaluated and the interaction parameters compared to those obtained for their traditional monocationic analogues 1-butyl-3-methylimidazolium and 1-butyl-1-methylpyrrolidinium ionic liquids.
Previously we characterized a large number of room temperature ionic liquids in terms of multiple solvation interactions using the solvation parameter model, shown in equation 3.^44 log k=c+rR2+sπ2^H+aα2^H+bβ2^H+l log L^16 [3] This approach utilizes inverse gas-liquid chromatography and allows the use of a large number of probe molecules to deconvolute solute retention in terms of the type and magnitude of individual solvation interactions. The solute descriptors (R2, π2^H, α2^H, β2^H, log L^16) from Equation 3 are obtained from the literature for many probe molecules containing a variety of functional groups.^45 The retention factor is determined chromatographically. The solute descriptors and retention factors are subjected to multiple linear regression analysis to obtain the interaction parameter coefficients (r, s, a, b, l), which ultimately characterize the stationary phase: r is the ability of the diionic liquid containing-stationary phase to interact with π and n electrons of the solute, s is a measure of the dipolarity/polarizability of the diionic liquid containing-stationary phase, a defines the diionic liquid containing-stationary phase hydrogen bond basicity, b is a measure of the hydrogen bond acidity, and/refers to the ability of the diionic liquid containing-stationary phase to separate adjacent members of a homologous series.^46
Test solutes used to determine interaction parameters and solvation thermodynamics were dissolved in dichloromethane. A Hewlett-Packard model 5890 gas chromatograph and a Hewlett-Packard 6890 series integrator were used for all separations. Split injection and flame ionization detection were utilized with injection and detection temperatures of 250° C. Helium was used as the carrier gas with a column inlet pressure of 3.1 psi and flow rate of 1.0 mL/min. Methane was used to determine the dead volume of the column. Multiple linear regression analysis and statistical calculations were performed using the program Analyze-it (Microsoft).

“1-vinyl-3-nonylimidazolium bis[(trifluoromethane)sulfonyl]imidate [nvim-NTf2]” showed a Density in series [1] of 1.28 g/mL. For the same molecule, the “Refractive Index” value in series [2] is 1.445.

For the molecule `CCCC[N+]1(C)CCCC1.O=S(=O)([N-]S(=O)(=O)C(F)(F)F)C(F)(F)F` [BMPY—NTf2, 1-butyl-1-methylpyrrolidinium bis[(trifluoromethylsulfonyl)imide]], in series [3] (40° C.), the “a (hydrogen bond basicity)” value is recorded as 2.08; the “b (hydrogen bond acidity)” value is 0.16; the “c (interaction parameter table, constant)” value is −2.78; the “l (dispersion forces)” value was 0.68. Moreover, in series [3] (40° C.), the “r (interaction via nonbonding and π-electrons)” value was 0; the “s (dipolarity/polarizability)” value is 1.69. Moreover, in series [3] (70° C.), the “a (hydrogen bond basicity)” value is 1.78; the “b (hydrogen bond acidity)” value is 0; the “c (interaction parameter table, constant)” value is on record as −2.80; the “l (dispersion forces)” value is given as 0.56. In series [3] (70° C.), the “r (interaction via nonbonding and π-electrons)” value is 0; the “s (dipolarity/polarizability)” value is given as 1.53. Also, in series [3] (100° C.), the “a (hydrogen bond basicity)” value was 1.55; the “b (hydrogen bond acidity)” value is 0; the “c (interaction parameter table, constant)” value is −2.92; the “l (dispersion forces)” value is on record as 0.48. Also, in series [3] (100° C.), the “r (interaction via nonbonding and π-electrons)” value is recorded as 0; the “s (dipolarity/polarizability)” value is on record as 1.44.

For the molecule `C[N+]1(CCC[N+]2(C)CCCC2)CCCC1.O=S(=O)([N-]S(=O)(=O)C(F)(F)F)C(F)(F)F.O=S(=O)([N-]S(=O)(=O)C(F)(F)F)C(F)(F)F` [C3(mpy)2-NTf2, 1,3-di(methylpyrrolidinium)propane di-bis[(trifluoromethyl)sulfonyl]imidate], the “Miscibility with Heptane” value was “Immiscible” and the “Miscibility with Water” value is on record as “Immiscible”.

Take `Cc1n(C)cc[n+]1CCCCCCCCC[n+]1ccn(C)c1C.F[P-](F)(F)(F)(F)F.F[P-](F)(F)(F)(F)F` [C9(m2im)2-PF6, 1,9-di(2,3-dimethylimidazolium)nonane di-hexafluorophosphate]: the “Miscibility with Heptane” value is given as “Immiscible” and the “Miscibility with Water” value is “Immiscible”.

Turning to `Cc1n(C)cc[n+]1CCC[n+]1ccn(C)c1C.[Br-].[Br-]` [C3(m2im)2-Br, 1,3-di(2,3-dimethylimidaolium)propane di-bromide], the “Miscibility with Heptane” value is on record as “Immiscible” and the “Miscibility with Water” value is on record as “Miscible”.

Take `Cc1n(C)cc[n+]1CCC[n+]1ccn(C)c1C.F[P-](F)(F)(F)(F)F.F[P-](F)(F)(F)(F)F` [C3(m2im)2-PF6, 1,3-di(2,3-dimethylimidazolium)propane di-hexafluorophosphate]: the “Miscibility with Heptane” value is reported as “Immiscible” and the “Miscibility with Water” value is “Immiscible”.

For the molecule “1-vinyl-3-dodecylimidazolium bis[(trifluoromethane)sulfonyl]imidate [dvim-NTf2]”, the Density in series [1] came to 1.23 g/mL. Also, the “Refractive Index” value in series [2] was found to be 1.448.

With `C[n+]1ccn(CCCCCCn2cc[n+](C)c2)c1.F[P-](F)(F)(F)(F)F.F[P-](F)(F)(F)(F)F` [C6(mim)2-PF6, 1,6-di(3-methylimidazolium)hexane di-hexafluorophosphate], the “Miscibility with Heptane” value is “Immiscible” and the “Miscibility with Water” value is “Immiscible”.

Take `CCCC[N+]1(CCCCCCCCC[N+]2(CCCC)CCCC2)CCCC1.F[P-](F)(F)(F)(F)F.F[P-](F)(F)(F)(F)F` [C9(bpy)2-PF6, 1,9-di(butylpyrrolidinium)nonane di-hexafluorophosphate]: the “Miscibility with Heptane” value is “Immiscible” and the “Miscibility with Water” value is “Immiscible”.

In the case of `C[n+]1ccn(CCCCn2cc[n+](C)c2)c1.O=S(=O)([N-]S(=O)(=O)C(F)(F)F)C(F)(F)F.O=S(=O)([N-]S(=O)(=O)C(F)(F)F)C(F)(F)F` [C4(mim)2-NTf2], in series [4] (40° C.), the “a (hydrogen bond basicity)” value turned out to be 2.11; the “b (hydrogen bond acidity)” value is reported as 0.50; the “c (interaction parameter table, constant)” value was −2.94; the “l (dispersion forces)” value turned out to be 0.56. In series [4] (40° C.), the “r (interaction via nonbonding and π-electrons)” value came to 0.25; the “s (dipolarity/polarizability)” value was 2.01. Moreover, in series [4] (70° C.), the “a (hydrogen bond basicity)” value is 1.77; the “b (hydrogen bond acidity)” value is listed as 0.45; the “c (interaction parameter table, constant)” value is on record as −2.91; the “l (dispersion forces)” value is 0.44. Also, in series [4] (70° C.), the “r (interaction via nonbonding and π-electrons)” value amounted to 0.22; the “s (dipolarity/polarizability)” value worked out at 1.78. Moreover, in series [4] (100° C.), the “a (hydrogen bond basicity)” value is listed as 1.57; the “b (hydrogen bond acidity)” value is on record as 0.33; the “c (interaction parameter table, constant)” value is listed as −3.06; the “l (dispersion forces)” value was 0.37. Also, in series [4] (100° C.), the “r (interaction via nonbonding and π-electrons)” value turned out to be 0.20; the “s (dipolarity/polarizability)” value worked out at 1.69.

Consider `Cn1cc[n+](CCCCCCCCC[n+]2ccn(C)c2)c1.F[P-](F)(F)(F)(F)F.F[P-](F)(F)(F)(F)F` [C9(mim)2-PF6, 1,9-di(3-methylimidazolium)nonane di-hexafluorophosphate], for which the “Miscibility with Heptane” value is “Immiscible” and the “Miscibility with Water” value is recorded as “Immiscible”.

On to `C[N+]1(CCCCCCCCC[N+]2(C)CCCC2)CCCC1.F[P-](F)(F)(F)(F)F.F[P-](F)(F)(F)(F)F` [C9(mpy)2-PF6, 1,9-di(methylpyrrolidinium)nonane di-hexafluorophosphate], for which the “Miscibility with Heptane” value is “Immiscible” and the “Miscibility with Water” value is reported as “Immiscible”.

`C=Cn1cc[n+](CCCCCCCCCCC[n+]2ccn(C=C)c2)c1.O=S(=O)([N-]S(=O)(=O)C(F)(F)F)C(F)(F)F.O=S(=O)([N-]S(=O)(=O)C(F)(F)F)C(F)(F)F` [C11(vim)2-NTf2]: the Density in series [1] was determined as 1.44 g/mL. Besides, in series [2], the “Refractive Index” value is 1.457.

As for `Cc1n(C)cc[n+]1CCCCCCCCC[n+]1ccn(C)c1C.[Br-].[Br-]` [C9(m2im)2-Br, 1,9-di(2,3-dimethylimidazolium)nonane di-bromide], the “Miscibility with Heptane” value was “Immiscible” and the “Miscibility with Water” value is on record as “Miscible”.

In turn, `C=Cn1cc[n+](CCCCCCCCCCCC[n+]2ccn(C=C)c2)c1.O=S(=O)([N-]S(=O)(=O)C(F)(F)F)C(F)(F)F.O=S(=O)([N-]S(=O)(=O)C(F)(F)F)C(F)(F)F` [C12(vim)2-NTf2] had a Density in series [1] of 1.42 g/mL. Also, in series [2], the “Refractive Index” value stood at 1.458.

As to `C[n+]1ccn(CCCCCCn2cc[n+](C)c2)c1.F[B-](F)(F)F.F[B-](F)(F)F` [C6(mim)2-BF4, 1,6-di(3-methylimidazolium)hexane di-tetrafluoroborate], the “Miscibility with Heptane” value is recorded as “Immiscible” and the “Miscibility with Water” value is reported as “Miscible”.

“1-vinyl-3-hexylimidazolium bis[(trifluoromethane)sulfonyl]imidate [hvim-NTf2]”: the Density in series [1] came out at 1.36 g/mL. For the same molecule, the “Refractive Index” value in series [2] is on record as 1.443.

Consider `C=Cn1cc[n+](CCCCCCCCC[n+]2ccn(C=C)c2)c1.O=S(=O)([N-]S(=O)(=O)C(F)(F)F)C(F)(F)F.O=S(=O)([N-]S(=O)(=O)C(F)(F)F)C(F)(F)F` [C9(vim)2-NTf2], for which, in series [1], the Density is 1.47 g/mL. The “Refractive Index” value in series [2] is 1.457.

Consider `Cc1n(C)cc[n+]1CCC[n+]1ccn(C)c1C.O=S(=O)([N-]S(=O)(=O)C(F)(F)F)C(F)(F)F.O=S(=O)([N-]S(=O)(=O)C(F)(F)F)C(F)(F)F` [C3(m2im)2-NTf2, 1,3-di(2,3-dimethylimidazolium)propane di-bis[(trifluoromethyl)sulfonyl]imidate], for which the “Miscibility with Heptane” value was “Immiscible” and the “Miscibility with Water” value is given as “Immiscible”.
